Measured values: ChEMBL document CHEMBL3991601, “The target landscape of clinical kinase drugs” (Science, 2017)
The source made the active and inactive calls.

What was measured:
[1] = molecular target: Protein kinase C alpha type (Homo sapiens, UniProt P17252)
[2] = molecular target: T1, Electron transfer flavoprotein subunit beta (Homo sapiens, UniProt P38117)
T1 sequence (P38117 whole entry): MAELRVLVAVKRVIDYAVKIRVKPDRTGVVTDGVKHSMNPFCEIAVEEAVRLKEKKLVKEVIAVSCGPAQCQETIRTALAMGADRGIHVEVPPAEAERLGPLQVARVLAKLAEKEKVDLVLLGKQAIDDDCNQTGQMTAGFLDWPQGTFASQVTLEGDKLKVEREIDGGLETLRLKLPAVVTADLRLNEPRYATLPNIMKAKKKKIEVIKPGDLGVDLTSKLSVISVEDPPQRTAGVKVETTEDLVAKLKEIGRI

[3] = molecular target: 26S proteasome regulatory subunit 6B (Homo sapiens, UniProt P43686)
[4] = molecular target: Putative heat shock protein HSP 90-beta 2 (Homo sapiens, UniProt Q58FF8)
[5] = molecular target: Chromodomain-helicase-DNA-binding protein 4 (Homo sapiens, UniProt Q14839)
Myosin-14 = Myosin-14 (Homo sapiens, UniProt Q7Z406)
[6] = molecular target: T2, Tyrosine--tRNA ligase, cytoplasmic (Homo sapiens, UniProt P54577)
T2 sequence (P54577 whole entry): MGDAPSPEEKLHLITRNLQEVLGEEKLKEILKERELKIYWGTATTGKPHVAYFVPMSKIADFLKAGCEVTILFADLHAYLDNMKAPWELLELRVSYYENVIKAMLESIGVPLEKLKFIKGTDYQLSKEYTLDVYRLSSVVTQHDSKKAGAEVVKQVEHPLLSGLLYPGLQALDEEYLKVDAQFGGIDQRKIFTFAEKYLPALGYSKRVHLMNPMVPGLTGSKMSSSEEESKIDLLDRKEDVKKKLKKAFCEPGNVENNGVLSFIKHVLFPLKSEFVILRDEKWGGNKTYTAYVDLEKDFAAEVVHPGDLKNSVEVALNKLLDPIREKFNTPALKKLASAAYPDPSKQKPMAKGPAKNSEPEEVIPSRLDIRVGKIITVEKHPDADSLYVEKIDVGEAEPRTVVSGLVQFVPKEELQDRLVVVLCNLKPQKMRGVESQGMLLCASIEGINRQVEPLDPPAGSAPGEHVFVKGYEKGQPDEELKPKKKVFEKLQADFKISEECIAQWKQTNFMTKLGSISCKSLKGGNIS

[7] = molecular target: T3, Phenylalanine--tRNA ligase beta subunit (Homo sapiens, UniProt Q9NSD9)
T3 sequence (Q9NSD9 whole entry): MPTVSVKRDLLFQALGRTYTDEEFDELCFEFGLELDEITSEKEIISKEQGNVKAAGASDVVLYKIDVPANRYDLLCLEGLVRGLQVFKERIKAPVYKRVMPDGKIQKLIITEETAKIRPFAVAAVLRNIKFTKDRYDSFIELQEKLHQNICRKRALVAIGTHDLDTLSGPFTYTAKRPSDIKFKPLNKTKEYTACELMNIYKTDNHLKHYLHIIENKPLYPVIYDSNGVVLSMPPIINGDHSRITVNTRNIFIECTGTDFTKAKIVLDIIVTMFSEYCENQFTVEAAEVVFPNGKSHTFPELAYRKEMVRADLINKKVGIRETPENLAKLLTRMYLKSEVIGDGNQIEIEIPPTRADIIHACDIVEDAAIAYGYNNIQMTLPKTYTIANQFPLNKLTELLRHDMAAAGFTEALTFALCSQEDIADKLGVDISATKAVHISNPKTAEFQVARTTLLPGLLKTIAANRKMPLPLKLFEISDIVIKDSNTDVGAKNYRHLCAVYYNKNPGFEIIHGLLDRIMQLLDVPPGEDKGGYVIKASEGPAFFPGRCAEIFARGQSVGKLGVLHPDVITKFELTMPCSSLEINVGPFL

[8] = molecular target: Interleukin-1 receptor-associated kinase 1 (Homo sapiens, UniProt P51617)
[9] = molecular target: Mitogen-activated protein kinase kinase kinase 4 (Homo sapiens, UniProt Q9Y6R4)
Ephrin type-A receptor 2 = Ephrin type-A receptor 2 (Homo sapiens, UniProt P29317)
[10] = molecular target: Inosine-5'-monophosphate dehydrogenase 2 (Homo sapiens, UniProt P12268)
Adenosine kinase = Adenosine kinase (Homo sapiens, UniProt P55263)
[11] = molecular target: T4, Serine/threonine-protein kinase STK11 (Homo sapiens, UniProt Q15831)
T4 sequence (Q15831 whole entry): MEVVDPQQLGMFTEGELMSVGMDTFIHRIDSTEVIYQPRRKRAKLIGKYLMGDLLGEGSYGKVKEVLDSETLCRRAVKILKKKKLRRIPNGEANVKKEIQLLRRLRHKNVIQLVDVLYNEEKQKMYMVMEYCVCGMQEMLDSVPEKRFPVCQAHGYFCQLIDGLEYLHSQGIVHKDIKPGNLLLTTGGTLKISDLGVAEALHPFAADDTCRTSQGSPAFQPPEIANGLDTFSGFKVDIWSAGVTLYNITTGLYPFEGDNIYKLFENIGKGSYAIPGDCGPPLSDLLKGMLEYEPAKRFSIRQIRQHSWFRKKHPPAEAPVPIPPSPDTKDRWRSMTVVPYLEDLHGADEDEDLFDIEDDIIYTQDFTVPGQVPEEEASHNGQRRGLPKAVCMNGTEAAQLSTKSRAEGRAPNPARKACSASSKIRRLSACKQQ

Wee1-like protein kinase = Wee1-like protein kinase (Homo sapiens, UniProt P30291)
Further: in the data inactive means no Kd found up to 30 µM.

Chain of Ephrin type-A receptor 2 (P29317 whole entry): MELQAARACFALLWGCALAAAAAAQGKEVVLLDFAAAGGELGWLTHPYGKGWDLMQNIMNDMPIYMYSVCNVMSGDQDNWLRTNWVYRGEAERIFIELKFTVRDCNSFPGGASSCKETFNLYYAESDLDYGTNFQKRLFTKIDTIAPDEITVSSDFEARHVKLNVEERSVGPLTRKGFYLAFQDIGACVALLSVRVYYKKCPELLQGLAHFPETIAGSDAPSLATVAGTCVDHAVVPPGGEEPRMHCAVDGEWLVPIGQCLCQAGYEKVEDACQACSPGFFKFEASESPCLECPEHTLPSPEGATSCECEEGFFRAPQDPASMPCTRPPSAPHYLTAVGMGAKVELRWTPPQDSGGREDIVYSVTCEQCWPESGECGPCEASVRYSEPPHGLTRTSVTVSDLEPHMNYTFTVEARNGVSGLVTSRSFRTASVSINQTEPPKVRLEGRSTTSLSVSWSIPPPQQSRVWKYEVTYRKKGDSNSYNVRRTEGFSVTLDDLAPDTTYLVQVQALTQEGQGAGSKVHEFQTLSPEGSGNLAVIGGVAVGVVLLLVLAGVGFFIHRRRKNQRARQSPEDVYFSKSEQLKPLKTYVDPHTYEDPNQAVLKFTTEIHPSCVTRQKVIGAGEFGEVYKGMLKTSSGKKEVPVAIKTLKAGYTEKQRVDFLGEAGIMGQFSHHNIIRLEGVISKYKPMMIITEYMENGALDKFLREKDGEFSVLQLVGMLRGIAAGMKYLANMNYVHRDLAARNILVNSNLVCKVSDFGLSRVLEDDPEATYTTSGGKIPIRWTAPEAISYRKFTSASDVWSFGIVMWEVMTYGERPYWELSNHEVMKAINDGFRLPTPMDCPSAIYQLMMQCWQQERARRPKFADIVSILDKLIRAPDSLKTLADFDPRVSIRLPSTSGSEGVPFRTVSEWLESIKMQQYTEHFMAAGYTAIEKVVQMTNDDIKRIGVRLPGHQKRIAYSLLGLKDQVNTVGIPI
Chain of 26S proteasome regulatory subunit 6B (P43686 whole entry): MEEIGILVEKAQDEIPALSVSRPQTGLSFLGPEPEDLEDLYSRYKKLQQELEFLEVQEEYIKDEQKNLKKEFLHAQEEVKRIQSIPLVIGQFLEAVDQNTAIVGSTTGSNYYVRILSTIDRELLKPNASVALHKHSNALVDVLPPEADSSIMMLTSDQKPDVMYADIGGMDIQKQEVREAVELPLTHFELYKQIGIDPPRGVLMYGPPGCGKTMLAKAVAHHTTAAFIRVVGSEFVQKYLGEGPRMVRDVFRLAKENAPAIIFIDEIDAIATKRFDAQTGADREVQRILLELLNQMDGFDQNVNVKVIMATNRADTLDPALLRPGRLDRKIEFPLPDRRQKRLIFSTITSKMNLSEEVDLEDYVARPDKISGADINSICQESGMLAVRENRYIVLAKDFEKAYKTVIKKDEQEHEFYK
Chain of Myosin-14 (Q7Z406 whole entry): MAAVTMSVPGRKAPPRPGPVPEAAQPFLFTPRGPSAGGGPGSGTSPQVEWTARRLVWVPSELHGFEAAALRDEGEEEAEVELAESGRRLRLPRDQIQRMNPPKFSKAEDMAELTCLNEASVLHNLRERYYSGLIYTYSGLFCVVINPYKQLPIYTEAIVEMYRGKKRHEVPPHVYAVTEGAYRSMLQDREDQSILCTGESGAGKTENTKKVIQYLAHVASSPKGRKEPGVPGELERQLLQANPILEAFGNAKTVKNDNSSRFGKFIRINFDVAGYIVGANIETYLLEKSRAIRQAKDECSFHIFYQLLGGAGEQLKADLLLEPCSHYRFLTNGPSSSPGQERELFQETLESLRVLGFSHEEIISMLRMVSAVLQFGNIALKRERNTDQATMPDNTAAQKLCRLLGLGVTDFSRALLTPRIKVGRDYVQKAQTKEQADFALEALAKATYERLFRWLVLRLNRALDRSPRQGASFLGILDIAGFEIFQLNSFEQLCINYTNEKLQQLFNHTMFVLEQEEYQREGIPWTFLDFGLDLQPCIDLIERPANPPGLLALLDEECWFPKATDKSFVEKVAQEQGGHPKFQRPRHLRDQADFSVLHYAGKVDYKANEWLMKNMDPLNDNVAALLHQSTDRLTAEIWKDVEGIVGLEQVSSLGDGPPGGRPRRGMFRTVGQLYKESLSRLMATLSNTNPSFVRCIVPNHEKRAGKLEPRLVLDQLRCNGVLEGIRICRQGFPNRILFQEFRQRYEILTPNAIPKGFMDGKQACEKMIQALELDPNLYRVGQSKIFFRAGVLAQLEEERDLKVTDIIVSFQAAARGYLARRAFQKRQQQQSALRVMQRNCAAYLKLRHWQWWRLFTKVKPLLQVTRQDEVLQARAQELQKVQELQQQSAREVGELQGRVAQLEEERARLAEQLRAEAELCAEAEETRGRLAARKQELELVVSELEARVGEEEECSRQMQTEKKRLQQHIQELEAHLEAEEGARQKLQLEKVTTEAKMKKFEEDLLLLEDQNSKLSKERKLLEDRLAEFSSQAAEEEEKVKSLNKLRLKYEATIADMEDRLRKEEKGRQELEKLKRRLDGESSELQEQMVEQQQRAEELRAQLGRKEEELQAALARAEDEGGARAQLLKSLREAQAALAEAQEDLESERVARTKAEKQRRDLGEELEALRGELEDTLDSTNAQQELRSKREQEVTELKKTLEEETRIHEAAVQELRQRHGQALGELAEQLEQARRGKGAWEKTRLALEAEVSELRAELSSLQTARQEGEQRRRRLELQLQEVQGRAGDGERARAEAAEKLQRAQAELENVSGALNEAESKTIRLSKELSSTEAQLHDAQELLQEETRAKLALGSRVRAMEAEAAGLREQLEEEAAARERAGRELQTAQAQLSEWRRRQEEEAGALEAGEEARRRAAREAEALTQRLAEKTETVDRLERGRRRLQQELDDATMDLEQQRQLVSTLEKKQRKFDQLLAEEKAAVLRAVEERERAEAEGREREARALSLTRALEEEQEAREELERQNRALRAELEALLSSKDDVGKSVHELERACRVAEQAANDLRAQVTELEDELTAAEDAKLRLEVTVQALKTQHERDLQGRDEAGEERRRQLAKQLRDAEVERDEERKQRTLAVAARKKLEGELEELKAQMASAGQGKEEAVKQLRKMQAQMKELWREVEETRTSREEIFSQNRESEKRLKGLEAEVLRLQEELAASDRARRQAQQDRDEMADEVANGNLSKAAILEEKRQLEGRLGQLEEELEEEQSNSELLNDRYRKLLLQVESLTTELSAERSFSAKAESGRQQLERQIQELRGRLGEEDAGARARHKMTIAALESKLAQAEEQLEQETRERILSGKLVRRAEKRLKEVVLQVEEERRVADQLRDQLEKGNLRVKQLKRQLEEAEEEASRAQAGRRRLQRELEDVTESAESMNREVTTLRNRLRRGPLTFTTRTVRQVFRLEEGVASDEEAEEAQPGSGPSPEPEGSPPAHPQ
Chain of Mitogen-activated protein kinase kinase kinase 4 (Q9Y6R4 whole entry): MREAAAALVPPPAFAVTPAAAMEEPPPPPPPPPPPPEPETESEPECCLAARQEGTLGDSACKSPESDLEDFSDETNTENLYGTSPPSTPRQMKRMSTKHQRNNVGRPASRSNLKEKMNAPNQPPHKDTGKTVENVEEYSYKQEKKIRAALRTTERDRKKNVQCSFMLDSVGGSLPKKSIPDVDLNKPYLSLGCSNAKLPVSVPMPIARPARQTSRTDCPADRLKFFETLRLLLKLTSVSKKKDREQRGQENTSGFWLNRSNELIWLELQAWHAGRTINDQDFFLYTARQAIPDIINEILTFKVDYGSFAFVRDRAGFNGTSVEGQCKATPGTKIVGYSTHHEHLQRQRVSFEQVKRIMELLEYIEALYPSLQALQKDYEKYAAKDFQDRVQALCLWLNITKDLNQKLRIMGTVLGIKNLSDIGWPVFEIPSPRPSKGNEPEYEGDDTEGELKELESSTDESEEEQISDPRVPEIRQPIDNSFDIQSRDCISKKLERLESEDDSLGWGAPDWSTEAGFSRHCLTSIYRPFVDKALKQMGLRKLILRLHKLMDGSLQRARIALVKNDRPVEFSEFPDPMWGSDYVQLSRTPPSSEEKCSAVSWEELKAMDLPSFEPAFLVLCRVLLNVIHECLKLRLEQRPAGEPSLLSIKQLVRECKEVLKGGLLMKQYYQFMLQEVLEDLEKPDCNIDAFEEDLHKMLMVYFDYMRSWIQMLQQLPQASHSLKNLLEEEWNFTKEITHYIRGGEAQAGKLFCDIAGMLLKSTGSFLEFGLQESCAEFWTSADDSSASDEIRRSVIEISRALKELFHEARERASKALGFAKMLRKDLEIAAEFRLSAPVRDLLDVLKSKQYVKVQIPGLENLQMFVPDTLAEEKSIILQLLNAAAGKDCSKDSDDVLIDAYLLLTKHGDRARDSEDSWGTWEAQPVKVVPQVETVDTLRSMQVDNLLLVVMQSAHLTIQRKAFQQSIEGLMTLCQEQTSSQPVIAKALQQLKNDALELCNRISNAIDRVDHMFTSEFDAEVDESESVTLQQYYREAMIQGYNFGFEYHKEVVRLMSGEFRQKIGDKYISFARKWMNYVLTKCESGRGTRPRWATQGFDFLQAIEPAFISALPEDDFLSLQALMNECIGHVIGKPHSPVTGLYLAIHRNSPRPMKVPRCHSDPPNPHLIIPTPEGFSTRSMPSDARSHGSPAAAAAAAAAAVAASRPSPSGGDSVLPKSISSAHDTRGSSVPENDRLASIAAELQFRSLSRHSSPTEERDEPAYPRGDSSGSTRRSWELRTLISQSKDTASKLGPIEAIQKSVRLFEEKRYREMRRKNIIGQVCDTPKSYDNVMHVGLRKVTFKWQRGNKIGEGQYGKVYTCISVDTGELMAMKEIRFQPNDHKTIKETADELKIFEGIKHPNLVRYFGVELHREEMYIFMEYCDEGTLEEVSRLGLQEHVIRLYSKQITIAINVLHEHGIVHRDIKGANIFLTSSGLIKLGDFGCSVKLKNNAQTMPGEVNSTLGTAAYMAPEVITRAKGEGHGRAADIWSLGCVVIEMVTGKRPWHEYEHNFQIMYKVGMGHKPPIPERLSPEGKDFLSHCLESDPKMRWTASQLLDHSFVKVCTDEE

SMILES	Kd [1]	Kd [2]	Kd [3]	Kd [4]	Kd [5]	Kd (Myosin-14)	Kd [6]	Kd [7]	Kd [8]	Kd [9]	Kd (Ephrin type-A receptor 2)	Kd [10]	Kd (Adenosine kinase)	Kd [11]	Kd (Wee1-like protein kinase)
CCN1CCN(Cc2ccc(-c3cc4c(N[C@H](C)c5ccccc5)ncnc4[nH]3)cc2)CC1 [AEE-788]	> 30 µM (inactive)	> 30 µM (inactive)	> 30 µM (inactive)	> 30 µM (inactive)	> 30 µM (inactive)	> 30 µM (inactive)	> 30 µM (inactive)	> 30 µM (inactive)	> 30 µM (inactive)	2.19 µM (active)	> 30 µM (inactive)	> 30 µM (inactive)	> 30 µM (inactive)	> 30 µM (inactive)	65.2 µM (active)
CNS(=O)(=O)Nc1nccc(Cc2c(C)c3ccc(Oc4ncccn4)cc3oc2=O)c1F [AVUTOMETINIB]	> 30 µM (inactive)	> 30 µM (inactive)	> 30 µM (inactive)	> 30 µM (inactive)	> 30 µM (inactive)	> 30 µM (inactive)	> 30 µM (inactive)	> 30 µM (inactive)	> 30 µM (inactive)	> 30 µM (inactive)	> 30 µM (inactive)	> 30 µM (inactive)	> 30 µM (inactive)	> 30 µM (inactive)	> 30 µM (inactive)
Cc1cc([C@@H](C)Nc2ccccc2C(=O)O)c2nc(N3CCOCC3)cc(=O)n2c1 [AZD-6482]	> 30 µM (inactive)	> 30 µM (inactive)	> 30 µM (inactive)	> 30 µM (inactive)	> 30 µM (inactive)	> 30 µM (inactive)	> 30 µM (inactive)	> 30 µM (inactive)	> 30 µM (inactive)	> 30 µM (inactive)	> 30 µM (inactive)	> 30 µM (inactive)	> 30 µM (inactive)	> 30 µM (inactive)	> 30 µM (inactive)
COc1ccc(-c2ccc3c(N4CCOC[C@@H]4C)nc(N4CCOC[C@@H]4C)nc3n2)cc1CO [AZD-8055]	> 30 µM (inactive)	> 30 µM (inactive)	> 30 µM (inactive)	> 30 µM (inactive)	> 30 µM (inactive)	> 30 µM (inactive)	> 30 µM (inactive)	> 30 µM (inactive)	> 30 µM (inactive)	> 30 µM (inactive)	> 30 µM (inactive)	> 30 µM (inactive)	> 30 µM (inactive)	> 30 µM (inactive)	> 30 µM (inactive)
CCS(=O)(=O)N1CC(CC#N)(n2cc(-c3ncnc4[nH]ccc34)cn2)C1 [BARICITINIB]	2.07 µM (active)	> 30 µM (inactive)	> 30 µM (inactive)	> 30 µM (inactive)	> 30 µM (inactive)	> 30 µM (inactive)	> 30 µM (inactive)	> 30 µM (inactive)	> 30 µM (inactive)	> 30 µM (inactive)	> 30 µM (inactive)	> 30 µM (inactive)	> 30 µM (inactive)	> 30 µM (inactive)	> 30 µM (inactive)
